Data on three compounds can be found in article doi:10.1101/2023.12.04.569845, “Identification of 4-(6-((2-methoxyphenyl)amino)pyrazin-2-yl)benzoic acids as CSNK2A inhibitors with antiviral activity and improved selectivity over PIM3” (bioRxiv, 2023).

Holding throughout (test): biochemical
What all share (parameters): Thermal shift (DSF, SYPRO Orange) Tm shift of recombinant kinase domains at 10 uM compound

The target in experiment [1] is T1, OSR1 (Homo sapiens, UniProt O95747).
T1 construct: gene OXSR1
Experimental: (§1) S23 Thermal stability kinase selectivity. The assay was performed as previously described. 9,10 Briefly, recombinant protein kinase domains at a concentration of 2 μM were mixed with 10 μM compound in a buffer containing 20 mM HEPES, pH 7.5, and 500 mM NaCl. SYPRO Orange (5000×, Invitrogen) was added as a fluorescence probe (1 µl per mL). Subsequently, temperature-dependent protein unfolding profiles were measured using the QuantStudio™ 5 realtime PCR machine (Thermo Fisher). […] The temperature was raised with a step rate of 3°C per minute. Data points were analysed with the internal software (Thermal Shift SoftwareTM Version 1.4, Thermo Fisher) using the Boltzmann equation to determine the inflection point of the transition curve.

For experiment [2], the target named is T2, DMPK1 (Homo sapiens, UniProt Q09013).
T2 construct: gene DMPK
T2 sequence (Q09013 1-629): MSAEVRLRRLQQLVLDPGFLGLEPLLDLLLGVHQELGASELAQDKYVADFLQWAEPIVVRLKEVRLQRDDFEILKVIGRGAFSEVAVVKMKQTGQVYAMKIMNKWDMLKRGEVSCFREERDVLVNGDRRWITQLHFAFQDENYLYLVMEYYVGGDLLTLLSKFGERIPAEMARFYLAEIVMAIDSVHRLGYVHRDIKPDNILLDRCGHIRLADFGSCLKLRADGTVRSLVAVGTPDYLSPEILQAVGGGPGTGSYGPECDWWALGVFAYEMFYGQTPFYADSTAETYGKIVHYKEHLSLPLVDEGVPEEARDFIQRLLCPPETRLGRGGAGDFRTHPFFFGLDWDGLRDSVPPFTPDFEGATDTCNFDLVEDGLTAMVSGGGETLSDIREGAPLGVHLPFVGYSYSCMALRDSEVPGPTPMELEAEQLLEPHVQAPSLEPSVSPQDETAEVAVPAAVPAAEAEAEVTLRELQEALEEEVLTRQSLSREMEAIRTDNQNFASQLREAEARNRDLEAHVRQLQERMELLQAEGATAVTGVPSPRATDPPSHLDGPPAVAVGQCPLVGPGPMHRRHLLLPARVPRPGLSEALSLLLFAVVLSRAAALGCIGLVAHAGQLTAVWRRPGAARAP
Experimental: as §1

The target of experiment [3] is T3, DRAK1 (Homo sapiens, UniProt Q9UEE5).
T3 construct: gene STK17A
T3 sequence (Q9UEE5 1-414): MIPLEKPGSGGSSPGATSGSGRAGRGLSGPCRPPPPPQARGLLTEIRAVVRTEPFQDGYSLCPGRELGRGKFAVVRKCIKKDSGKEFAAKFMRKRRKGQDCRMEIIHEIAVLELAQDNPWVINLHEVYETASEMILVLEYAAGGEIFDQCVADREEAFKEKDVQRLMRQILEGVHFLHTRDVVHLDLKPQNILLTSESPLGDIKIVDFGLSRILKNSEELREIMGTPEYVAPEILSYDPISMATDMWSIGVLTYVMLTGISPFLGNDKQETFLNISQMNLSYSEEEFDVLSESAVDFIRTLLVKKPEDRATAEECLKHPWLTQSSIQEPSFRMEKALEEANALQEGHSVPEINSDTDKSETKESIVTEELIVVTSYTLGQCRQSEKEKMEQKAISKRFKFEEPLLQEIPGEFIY
Experimental: as §1

For experiment [4], the target named is T4, PCTAIRE1 (Homo sapiens, UniProt Q00536).
T4 construct: gene CDK16
Experimental: as §1

For experiment [5], the target named is SRC (Homo sapiens, UniProt P12931).
Experimental: as §1
Experiment [6] concerns the target T5, CHK2 (Homo sapiens, UniProt O96017).
T5 construct: gene CHEK2
Experimental: as §1

Experiment [7] addresses PAK4 (Homo sapiens, UniProt O96013).
Experimental: as §1
In experiment [8] the target is T6, DCAMKL1 (Homo sapiens, UniProt O15075).
T6 construct: gene DCLK1
T6 sequence (O15075 1-740): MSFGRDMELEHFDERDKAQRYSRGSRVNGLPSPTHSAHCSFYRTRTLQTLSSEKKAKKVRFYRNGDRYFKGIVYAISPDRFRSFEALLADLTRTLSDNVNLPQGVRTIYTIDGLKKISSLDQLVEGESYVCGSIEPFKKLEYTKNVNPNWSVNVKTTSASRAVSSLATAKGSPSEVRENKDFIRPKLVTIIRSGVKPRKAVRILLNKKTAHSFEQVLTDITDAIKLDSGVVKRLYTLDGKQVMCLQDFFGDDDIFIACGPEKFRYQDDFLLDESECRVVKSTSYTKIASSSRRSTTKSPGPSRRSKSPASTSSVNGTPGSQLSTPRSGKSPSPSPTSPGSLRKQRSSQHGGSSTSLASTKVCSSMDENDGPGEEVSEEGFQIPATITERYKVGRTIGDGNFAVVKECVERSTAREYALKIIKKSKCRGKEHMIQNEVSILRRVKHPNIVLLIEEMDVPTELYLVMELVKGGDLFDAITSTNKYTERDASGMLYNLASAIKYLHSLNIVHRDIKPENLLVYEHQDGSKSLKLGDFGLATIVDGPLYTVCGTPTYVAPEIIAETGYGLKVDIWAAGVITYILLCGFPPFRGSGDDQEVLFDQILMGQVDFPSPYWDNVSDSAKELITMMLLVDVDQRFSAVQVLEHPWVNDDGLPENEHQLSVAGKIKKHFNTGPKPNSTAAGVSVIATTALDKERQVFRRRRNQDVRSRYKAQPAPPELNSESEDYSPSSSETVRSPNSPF
Experimental: as §1

Experiment [9] deals with CLK3 (Homo sapiens, UniProt P49761).
Experimental: as §1
Experiment [10] has as its target ABL1 (Homo sapiens, UniProt P00519).
Experimental: as §1

Where two headings read alike, the source gives them in different places.

Chain of PAK4 (O96013 whole entry): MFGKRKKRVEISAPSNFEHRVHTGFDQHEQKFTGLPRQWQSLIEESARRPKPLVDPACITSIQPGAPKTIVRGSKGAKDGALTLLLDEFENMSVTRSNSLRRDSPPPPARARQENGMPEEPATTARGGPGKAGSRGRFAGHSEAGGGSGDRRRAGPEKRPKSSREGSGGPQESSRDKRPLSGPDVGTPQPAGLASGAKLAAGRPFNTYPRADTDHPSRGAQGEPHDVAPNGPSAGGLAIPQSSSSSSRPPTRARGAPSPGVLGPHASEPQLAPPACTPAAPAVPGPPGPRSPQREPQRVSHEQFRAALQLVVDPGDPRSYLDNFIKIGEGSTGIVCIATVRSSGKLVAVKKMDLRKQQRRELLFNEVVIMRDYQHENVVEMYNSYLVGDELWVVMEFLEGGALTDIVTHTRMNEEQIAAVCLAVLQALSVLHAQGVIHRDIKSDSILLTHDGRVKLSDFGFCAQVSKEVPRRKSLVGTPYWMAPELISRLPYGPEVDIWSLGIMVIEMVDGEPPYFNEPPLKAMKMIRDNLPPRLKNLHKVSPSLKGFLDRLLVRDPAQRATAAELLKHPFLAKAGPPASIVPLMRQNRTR
T4 sequence (Q00536 whole entry): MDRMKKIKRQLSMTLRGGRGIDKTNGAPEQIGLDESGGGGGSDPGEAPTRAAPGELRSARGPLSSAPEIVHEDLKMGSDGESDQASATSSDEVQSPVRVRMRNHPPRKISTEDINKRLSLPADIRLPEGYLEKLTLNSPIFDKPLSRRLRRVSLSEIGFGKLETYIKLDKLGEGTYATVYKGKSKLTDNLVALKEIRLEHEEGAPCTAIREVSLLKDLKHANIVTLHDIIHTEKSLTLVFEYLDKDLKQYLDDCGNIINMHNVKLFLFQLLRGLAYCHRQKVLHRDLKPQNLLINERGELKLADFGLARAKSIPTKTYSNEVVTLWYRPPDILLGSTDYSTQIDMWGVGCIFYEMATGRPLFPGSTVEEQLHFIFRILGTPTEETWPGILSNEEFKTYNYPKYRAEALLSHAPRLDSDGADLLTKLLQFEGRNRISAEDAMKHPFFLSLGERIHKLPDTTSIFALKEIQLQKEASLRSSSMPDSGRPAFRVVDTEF
Chain of ABL1 (P00519 whole entry): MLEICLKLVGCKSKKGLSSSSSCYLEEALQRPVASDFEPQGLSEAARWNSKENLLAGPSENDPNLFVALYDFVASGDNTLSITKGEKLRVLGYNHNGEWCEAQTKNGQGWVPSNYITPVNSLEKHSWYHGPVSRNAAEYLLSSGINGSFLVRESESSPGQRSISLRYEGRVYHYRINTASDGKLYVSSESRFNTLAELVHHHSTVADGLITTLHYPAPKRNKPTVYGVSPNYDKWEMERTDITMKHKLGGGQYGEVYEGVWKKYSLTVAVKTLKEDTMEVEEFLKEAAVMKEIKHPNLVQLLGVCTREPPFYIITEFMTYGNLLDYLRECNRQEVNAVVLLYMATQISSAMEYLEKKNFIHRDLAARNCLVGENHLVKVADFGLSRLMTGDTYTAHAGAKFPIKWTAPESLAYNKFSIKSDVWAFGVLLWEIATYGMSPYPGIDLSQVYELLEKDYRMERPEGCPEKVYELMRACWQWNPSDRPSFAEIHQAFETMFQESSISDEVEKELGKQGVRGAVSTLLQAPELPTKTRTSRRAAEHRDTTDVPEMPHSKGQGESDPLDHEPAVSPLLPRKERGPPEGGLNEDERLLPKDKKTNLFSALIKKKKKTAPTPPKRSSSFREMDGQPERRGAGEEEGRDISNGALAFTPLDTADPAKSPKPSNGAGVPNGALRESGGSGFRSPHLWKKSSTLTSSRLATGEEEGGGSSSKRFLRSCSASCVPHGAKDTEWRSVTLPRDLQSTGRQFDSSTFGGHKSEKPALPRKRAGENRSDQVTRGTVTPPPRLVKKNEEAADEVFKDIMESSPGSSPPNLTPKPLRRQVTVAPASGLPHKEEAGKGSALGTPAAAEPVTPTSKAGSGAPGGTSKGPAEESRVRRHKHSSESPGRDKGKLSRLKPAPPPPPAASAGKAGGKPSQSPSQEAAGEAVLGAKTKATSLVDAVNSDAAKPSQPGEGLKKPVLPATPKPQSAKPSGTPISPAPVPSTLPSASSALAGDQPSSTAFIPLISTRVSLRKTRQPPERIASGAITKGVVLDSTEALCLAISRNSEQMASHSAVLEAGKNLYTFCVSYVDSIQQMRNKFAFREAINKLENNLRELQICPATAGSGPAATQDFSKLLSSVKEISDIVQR
T1 sequence (O95747 whole entry): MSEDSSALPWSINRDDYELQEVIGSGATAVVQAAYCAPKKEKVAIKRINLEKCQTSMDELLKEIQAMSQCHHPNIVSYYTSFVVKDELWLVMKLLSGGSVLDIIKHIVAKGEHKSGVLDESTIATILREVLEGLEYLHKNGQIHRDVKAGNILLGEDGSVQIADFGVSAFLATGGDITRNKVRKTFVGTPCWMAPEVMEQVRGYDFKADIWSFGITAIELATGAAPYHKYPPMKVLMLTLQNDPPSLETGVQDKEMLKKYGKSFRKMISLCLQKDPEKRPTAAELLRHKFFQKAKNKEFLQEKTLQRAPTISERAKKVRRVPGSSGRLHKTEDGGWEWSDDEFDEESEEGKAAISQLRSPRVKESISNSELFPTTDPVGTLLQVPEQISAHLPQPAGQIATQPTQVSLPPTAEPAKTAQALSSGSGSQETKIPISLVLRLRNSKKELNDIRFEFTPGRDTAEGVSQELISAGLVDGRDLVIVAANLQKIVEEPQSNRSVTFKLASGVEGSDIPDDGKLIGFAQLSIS
Chain of CLK3 (P49761 whole entry): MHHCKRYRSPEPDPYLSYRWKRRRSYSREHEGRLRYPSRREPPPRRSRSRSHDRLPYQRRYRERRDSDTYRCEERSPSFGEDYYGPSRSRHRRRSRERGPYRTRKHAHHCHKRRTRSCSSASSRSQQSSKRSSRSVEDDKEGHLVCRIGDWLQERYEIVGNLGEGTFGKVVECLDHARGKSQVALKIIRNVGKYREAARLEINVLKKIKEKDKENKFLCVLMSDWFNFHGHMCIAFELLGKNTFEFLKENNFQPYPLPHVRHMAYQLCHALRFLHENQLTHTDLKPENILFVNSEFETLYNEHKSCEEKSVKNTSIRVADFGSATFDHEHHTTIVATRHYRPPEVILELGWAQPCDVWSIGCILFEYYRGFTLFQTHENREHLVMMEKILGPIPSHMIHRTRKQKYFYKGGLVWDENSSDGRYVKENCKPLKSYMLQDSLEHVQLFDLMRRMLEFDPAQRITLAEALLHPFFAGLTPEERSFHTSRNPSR
Chain of SRC (P12931 whole entry): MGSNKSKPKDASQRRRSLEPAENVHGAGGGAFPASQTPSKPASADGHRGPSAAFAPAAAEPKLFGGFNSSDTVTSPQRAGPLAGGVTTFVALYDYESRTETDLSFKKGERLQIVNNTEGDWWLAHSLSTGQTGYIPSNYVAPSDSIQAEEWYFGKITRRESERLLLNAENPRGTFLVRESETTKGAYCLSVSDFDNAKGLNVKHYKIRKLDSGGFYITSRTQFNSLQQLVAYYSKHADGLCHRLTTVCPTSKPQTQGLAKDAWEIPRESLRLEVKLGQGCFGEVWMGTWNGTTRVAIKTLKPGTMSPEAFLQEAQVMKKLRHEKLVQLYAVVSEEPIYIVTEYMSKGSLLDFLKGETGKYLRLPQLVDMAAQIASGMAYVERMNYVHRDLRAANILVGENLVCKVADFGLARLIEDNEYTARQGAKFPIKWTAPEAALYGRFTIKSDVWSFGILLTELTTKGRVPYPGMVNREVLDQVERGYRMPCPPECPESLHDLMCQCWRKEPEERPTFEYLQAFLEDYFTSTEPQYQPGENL
T5 sequence (O96017 whole entry): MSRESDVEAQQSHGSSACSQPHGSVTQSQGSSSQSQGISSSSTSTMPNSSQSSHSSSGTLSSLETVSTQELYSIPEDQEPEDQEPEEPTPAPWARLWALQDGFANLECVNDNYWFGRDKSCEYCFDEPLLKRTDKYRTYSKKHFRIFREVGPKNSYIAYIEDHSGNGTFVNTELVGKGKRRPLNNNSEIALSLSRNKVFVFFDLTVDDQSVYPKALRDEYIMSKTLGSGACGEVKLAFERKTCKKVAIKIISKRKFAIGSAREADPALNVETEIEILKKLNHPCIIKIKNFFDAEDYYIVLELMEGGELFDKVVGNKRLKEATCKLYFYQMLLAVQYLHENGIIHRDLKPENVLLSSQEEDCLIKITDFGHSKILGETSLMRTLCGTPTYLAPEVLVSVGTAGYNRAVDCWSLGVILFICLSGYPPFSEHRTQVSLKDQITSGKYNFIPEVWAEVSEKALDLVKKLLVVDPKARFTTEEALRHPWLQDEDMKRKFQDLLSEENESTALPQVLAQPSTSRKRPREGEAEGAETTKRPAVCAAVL

Take `CC(C)Oc1ccc2ccn(-c3cncc(-c4ccc(C(=O)O)cc4)n3)c2c1` [6c]: the ΔTm at 10 µM was -2 °C in experiment [1] (read-out: 6c); 0 °C in [2] (read-out: 6c); 6 °C in [3] (read-out: 6c); 5 °C in experiment [4] (read-out: 6c); 3 °C in experiment [5] (read-out: 6c); 4 °C in [6] (read-out: 6c). The ΔTm at 10 µM in experiment [7] (read-out: 6c) was 3 °C; in experiment [8] (read-out: 6c) it was 3 °C; in experiment [9] (read-out: 6c) it was 8 °C; in experiment [10] (read-out: 6c), 8 °C.
Regarding `COc1ccc(OC(C)C)cc1Nc1cncc(-c2ccc(C(=O)O)cc2)n1` [7c], the ΔTm at 10 µM in [1] (read-out: 7c) turned out to be 0 °C; in experiment [2] (read-out: 7c) it was 0 °C; in [3] (read-out: 7c), 4 °C; in experiment [4] (read-out: 7c), 2 °C; in experiment [5] (read-out: 7c), 3 °C; in experiment [6] (read-out: 7c), 3 °C. Moreover, the ΔTm at 10 µM was 1 °C in experiment [7] (read-out: 7c), 3 °C in experiment [8] (read-out: 7c), 7 °C in [9] (read-out: 7c) and 7 °C in [10] (read-out: 7c).
With `CC(C)Nc1ccc2cnn(-c3cncc(-c4ccc(C(=O)O)cc4)n3)c2c1` [compound 2, 2], the ΔTm at 10 µM in [1] (read-out: 2) is -1 °C; in [2] (read-out: 2), 0 °C; in experiment [3] (read-out: 2), 8 °C; in experiment [4] (read-out: 2), 2 °C; in experiment [5] (read-out: 2) it was 3 °C; in experiment [6] (read-out: 2) it was 6 °C. The ΔTm at 10 µM turned out to be 3 °C in [7] (read-out: 2), 4 °C in experiment [8] (read-out: 2), 8 °C in experiment [9] (read-out: 2) and 7 °C in experiment [10] (read-out: 2).
